Experiment [1] addresses H3R. Particulars: Figure 1, clinically evaluated H3R antagonists; cited from earlier work.
Experiment [2] addresses σ1R. Particulars: cited from earlier work.
The target of experiment [3] is T1, σ2R (Rattus norvegicus, UniProt Q5U3Y7).
T1 sequence (Q5U3Y7 1-176): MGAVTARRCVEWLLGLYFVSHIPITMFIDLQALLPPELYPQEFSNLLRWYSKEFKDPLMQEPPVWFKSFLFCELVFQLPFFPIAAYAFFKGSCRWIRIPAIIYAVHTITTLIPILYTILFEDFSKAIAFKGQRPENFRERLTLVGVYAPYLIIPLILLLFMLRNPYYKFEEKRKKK
Briefly: σ2R radioligand binding ([3H]DTG, liver membranes).

Experiment [4] has as its target T2, human recombinant histamine H3R (Homo sapiens, UniProt Q9Y5N1).
T2 construct: expressed in transfected cells
Particulars: mean [CI 95%]; read-out: hH3R Ki; cited from earlier work.

In experiment [5] the target is σ1R (Cavia porcellus, UniProt Q60492). Briefly: σ1R radioligand binding ([3H](+)-pentazocine, brain cortex membranes).
Experiment [6] relates to σ1R. The experiment is described as above. Particulars: σ2R Ki / σ1R Ki (selectivity factor).
Experiment [7] has as its target T2, human recombinant histamine H3R. Description: hH3R radioligand depletion binding assay ([3H]Nα-methylhistamine). Particulars: mean [CI 95%]; HEK293 cells; data not published yet.
Experiment [8] deals with σ2R. Particulars: cited from earlier work.
In experiment [9] the test system is female CD1 mice. Briefly: loperamide-induced antinociception, paw pressure struggle response latency. Particulars: mice. It is filed as in vivo.
Setting [10] is: Figure 1, clinically evaluated H3R antagonists, read-out: σ1R Ki.
Where [11] appears, read: Table S1, well-known ligands (test set), no reference given, read-out: Exp. σ1 Ki.
The mark [12] stands for this setting: exptl Ki σ2, Table 3, given as mean ± spread.
[13] abbreviates: σ2R Ki, mean [CI 95%], [3H]DTG with (+)-pentazocine mask.
The mark [14] stands for this setting: exptl Ki σ1, Table 3, given as mean ± spread.
Where [15] appears, read: σ1R Ki, mean [CI 95%], [3H](+)-pentazocine.
[16] abbreviates: Table S1, well-known ligands (test set), no reference given, read-out: Exp. σ2 Ki.

Counter-ions that a name gives are not always drawn. Like-named read-outs stand apart in the source and are kept apart here. A value given as a limit tells only on which side of the number the result lay.

T2 sequence (Q9Y5N1 whole entry): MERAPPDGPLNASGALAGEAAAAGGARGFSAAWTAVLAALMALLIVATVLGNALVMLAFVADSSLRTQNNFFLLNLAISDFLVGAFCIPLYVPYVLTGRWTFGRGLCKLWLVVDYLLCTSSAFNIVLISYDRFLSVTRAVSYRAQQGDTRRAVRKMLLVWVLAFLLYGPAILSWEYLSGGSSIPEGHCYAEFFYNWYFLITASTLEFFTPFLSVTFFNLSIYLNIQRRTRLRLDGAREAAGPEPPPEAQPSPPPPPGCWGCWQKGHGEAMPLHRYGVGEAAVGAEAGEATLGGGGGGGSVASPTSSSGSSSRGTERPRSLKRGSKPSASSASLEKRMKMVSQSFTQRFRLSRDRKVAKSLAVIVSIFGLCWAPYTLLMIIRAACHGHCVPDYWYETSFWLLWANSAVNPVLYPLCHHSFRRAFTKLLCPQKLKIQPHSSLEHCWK
σ1R (Cavia porcellus, UniProt Q60492), sequence (Q60492 whole entry): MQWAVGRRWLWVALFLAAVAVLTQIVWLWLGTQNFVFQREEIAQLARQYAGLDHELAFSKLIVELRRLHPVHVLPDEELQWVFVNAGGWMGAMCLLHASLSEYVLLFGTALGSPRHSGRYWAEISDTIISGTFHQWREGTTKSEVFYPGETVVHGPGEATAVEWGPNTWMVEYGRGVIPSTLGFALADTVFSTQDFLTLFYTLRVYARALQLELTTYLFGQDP

Take `C[C@@H]1CCCN1CCc1cc2cc(-c3ccc(C#N)cc3)ccc2o1` [ABT-239]: the inhibition constant Ki (usually the dissociation constant of the complex between target and ligand, obtained from inhibition or displacement) is 15.9 nM in experiment [1] and 6.3 nM in [2] (setting [10]).

For the compound `CN1CCN(CCc2ccc(Cl)c(Cl)c2)CC1` [BD1063], in [2] (setting [11]), the inhibition constant Ki is 13.7 nM.

Take `CCc1ccc(OCCCN2CCN(c3ccncc3)CC2)cc1` [Compound 1]: the Ki was 64.3 ± 14 nM in experiment [3] (setting [12]); 64.3 nM in [3] (setting [13]); 40.4 nM in experiment [4]; 592 ± 94.1 nM in experiment [5] (setting [14]); 592 nM in experiment [5] (setting [15]). Besides, in experiment [6], the σ2/σ1 ratio was 0.1.

On to `CC(C)(C)c1ccc(OCCCN2CCN(c3ccncc3)CC2)cc1` [Compound 2], for which the Ki in experiment [3] (setting [12]) is 130 ± 8.23 nM; in experiment [3] (setting [13]) it was 130 nM; in experiment [5] (setting [14]), 112 ± 9.45 nM; in experiment [5] (setting [15]), 112 nM. The σ2/σ1 ratio in experiment [6] was 1.2.

As to `CC(=O)c1ccc(OCCCN2CCN(c3ccncc3)CC2)cc1` [Compound 3], the Ki came to 247 ± 39.4 nM in experiment [3] (setting [12]), 247 nM in [3] (setting [13]), 1410 ± 312 nM in [5] (setting [14]) and 1410 nM in experiment [5] (setting [15]). In [6], the σ2/σ1 ratio worked out at 0.2.

Consider `O=C(c1ccc(OCCCN2CCN(c3ccncc3)CC2)cc1)C1CC1` [Compound 4], for which the Ki in [3] (setting [12]) is 101 ± 15.4 nM; in [3] (setting [13]), 101 nM; in experiment [4], 3 nM; in [5] (setting [14]), 1530 ± 275 nM; in [5] (setting [15]), 1530 nM. Further, the σ2/σ1 ratio in experiment [6] was 0.1.

Take `c1ccc(-c2ccc(OCCCN3CCN(c4ccncc4)CC3)cc2)cc1` [Compound 6]: the Ki is 108 ± 19.2 nM in experiment [3] (setting [12]); 108 nM in experiment [3] (setting [13]); 21.1 nM in experiment [4]; 638 ± 120 nM in [5] (setting [14]); 638 nM in experiment [5] (setting [15]). The σ2/σ1 ratio in experiment [6] was found to be 0.2.

In the case of `N#Cc1ccc(-c2ccc(OCCCN3CCN(c4ccncc4)CC3)cc2)cc1` [Compound 7], the Ki in [3] (setting [12]) was found to be 75.2 ± 13 nM; in experiment [3] (setting [13]), 75.2 nM.

With `O=C(c1ccccc1)c1ccc(OCCCN2CCN(c3ccncc3)CC2)cc1` [Compound 8], the Ki was 29.2 ± 1.81 nM in experiment [3] (setting [12]), 29.2 nM in experiment [3] (setting [13]), 726 ± 177 nM in experiment [5] (setting [14]) and 726 nM in [5] (setting [15]).

In the case of `O=C(c1ccc(Cl)cc1)c1ccc(OCCCN2CCN(c3ccncc3)CC2)cc1` [Compound 9], the inhibition constant Ki in [3] (setting [12]) was found to be 32.4 ± 3.46 nM; in [3] (setting [13]), 32.4 nM; in experiment [5] (setting [14]) it was 641 ± 87.9 nM; in experiment [5] (setting [15]), 641 nM. Further, the σ2/σ1 ratio in experiment [6] stood at 0.1.

As to `O=C(c1ccc(F)cc1)c1ccc(OCCCN2CCN(c3ccncc3)CC2)cc1` [Compound 10], the inhibition constant Ki in experiment [3] (setting [12]) was 164 ± 34.6 nM; in experiment [3] (setting [13]), 164 nM; in [5] (setting [14]), 1310 ± 332 nM; in [5] (setting [15]), 1310 nM. Further, the σ2/σ1 ratio in [6] was 0.1.

With `O=C(c1ccccc1)c1ccc(OCCCN2CCCCC2)cc1` [Compound 12], the inhibitory constant (Ki) in experiment [7] came to 22 nM; in [3] (setting [12]), 96.2 ± 14.7 nM; in experiment [3] (setting [13]), 96.2 nM; in [5] (setting [14]), 14.8 ± 1.86 nM; in experiment [5] (setting [15]) it was 14.8 nM. Also, in [6], the σ2/σ1 ratio was 6.5.

For the compound `CC(C)(C)c1ccc(OCCCCN2CCN(c3ccncc3)CC2)cc1` [Compound 13], the Ki in [3] (setting [12]) was determined as 175 ± 35.1 nM; in experiment [3] (setting [13]) it was 175 nM; in [5] (setting [14]) it was 51.8 ± 9.1 nM; in experiment [5] (setting [15]), 51.8 nM. Besides, the σ2/σ1 ratio in experiment [6] amounted to 3.4.

On to `CCC(C)(C)c1ccc(OCCCCN2CCN(c3ccncc3)CC2)cc1` [Compound 14], for which the Ki in experiment [3] (setting [12]) worked out at 101 ± 19.3 nM; in [3] (setting [13]), 101 nM; in experiment [5] (setting [14]), 285 ± 50.4 nM; in [5] (setting [15]), 285 nM. For the same compound, the σ2/σ1 ratio in experiment [6] turned out to be 0.4.

As for `CC(=O)c1ccc(OCCCCN2CCN(c3ccncc3)CC2)cc1` [Compound 15], the Ki was 1790 ± 415 nM in [3] (setting [12]), 1800 nM in experiment [3] (setting [13]), > 10000 nM in experiment [5] (setting [14]) and > 10000 nM in [5] (setting [15]). Besides, the σ2/σ1 ratio in experiment [6] is <0.2.

As to `CC(=O)c1ccc(OCCCCCCN2CCN(c3ccncc3)CC2)cc1` [Compound 16], the Ki was 151 ± 26.4 nM in experiment [3] (setting [12]); 151 nM in [3] (setting [13]); 12.7 nM in [4]; 37.8 ± 16.1 nM in experiment [5] (setting [14]); 37.8 nM in experiment [5] (setting [15]). The σ2/σ1 ratio in experiment [6] is reported as 4.0.

In the case of `CCC(=O)c1ccc(OCCCCCCN2CCN(c3ccncc3)CC2)cc1` [Compound 17], the Ki in experiment [3] (setting [12]) is 110 ± 15.9 nM; in [3] (setting [13]) it was 110 nM; in experiment [4] it was 16.9 nM; in experiment [5] (setting [14]) it was 248 ± 30.9 nM; in experiment [5] (setting [15]), 248 nM. Also, the σ2/σ1 ratio in experiment [6] amounted to 0.4.

Regarding `CC(C)(C)c1ccc(OCCCCCCN2CCN(c3ccncc3)CC2)cc1` [Compound 18], the inhibitory constant (Ki) in experiment [3] (setting [12]) was 179 ± 27.2 nM; in experiment [3] (setting [13]), 179 nM; in [4], 397 nM; in experiment [5] (setting [14]), 255 ± 48 nM; in [5] (setting [15]), 255 nM. Further, the σ2/σ1 ratio in experiment [6] was 0.7.

As for `CC(=O)c1ccc(OCCCCCCCCN2CCN(c3ccncc3)CC2)cc1` [Compound 19], the Ki was 59.7 ± 11.2 nM in experiment [3] (setting [12]); 59.7 nM in [3] (setting [13]); 40.5 nM in experiment [4]; 408 ± 111 nM in [5] (setting [14]); 408 nM in experiment [5] (setting [15]). Also, the σ2/σ1 ratio in experiment [6] is on record as 0.1.

For the compound `CCC(=O)c1ccc(OCCCCCCCCN2CCN(c3ccncc3)CC2)cc1` [Compound 20], the inhibitory constant (Ki) is 65.9 ± 11 nM in experiment [3] (setting [12]); 65.9 nM in experiment [3] (setting [13]); 38.9 nM in experiment [4]; 274 ± 40.4 nM in experiment [5] (setting [14]); 274 nM in [5] (setting [15]). Moreover, the σ2/σ1 ratio in experiment [6] is recorded as 0.2.

On to `C#CCN(C)Cc1cc2cc(OCCCN3CCCCC3)ccc2n1C` [Contilisant], for which the Ki in experiment [8] (Figure 1, clinically evaluated H3R antagonists, read-out: σ2R Ki) was 326 nM; in [1], 10.8 nM; in [2] (setting [10]), 65.2 nM.

Take `COc1cc2c(cc1OC)CN(CCCCNC(=O)c1cc(C)ccc1OCCF)CC2` [F-ISO]: the inhibition constant (Ki) in experiment [8] (setting [16]) was 6.95 nM; in experiment [2] (setting [11]), 330 nM.

With `CNC(=O)c1ccc(Oc2ccc3c(c2)CCN(C2CCC2)CC3)nc1` [GSK189254], the inhibitory constant (Ki) is 1.7 nM in experiment [1] and 240 nM in experiment [2] (setting [10]).

Regarding `CC(C(O)c1ccc(O)cc1)N1CCC(Cc2ccccc2)CC1` (stereo not drawn) [Ifenprodil], the Ki is 18.8 nM in [8] (setting [16]) and 1.02 nM in experiment [2] (setting [11]).

Consider `c1cc(OCCCN2CCCCC2)ccc1CN1CCCCC1` [JNJ-5207852], for which the inhibition constant (Ki) in experiment [1] was 0.3 nM; in experiment [2] (setting [10]) it was 1170 nM.

With `COOc1c(OC)cc(I)cc1C(=O)NCCCCN1CCc2cc(OC)c(OC)cc2C1` [RHM-4, N-(4-(6,7-Dimethoxy-3,4-dihydroisoquinolin-2(1H)-yl)butyl)-5-iodo-3-methoxy-2-(methylperoxy)benzamide], the inhibition constant (Ki) in [8] (read-out: σ2R Ki) is 0.26 nM; in experiment [2] (read-out: σ1R Ki), 2150 nM. In experiment [6], the σ2/σ1 ratio came out at 0.00012.

Take `CN(C)C(=O)C(CCN1CCC(O)(c2ccc(Cl)cc2)CC1)(c1ccccc1)c1ccccc1` [loperamide, loperamide hydrochloride, reference compound]: the “struggle response latency versus solvent” value in [9] (4 mg/kg sc alone) was “minimal (nonsignificant) increase in the struggle response latency”.

With `C=CCN1CC[C@]23c4c5ccc(O)c4O[C@H]2C(=O)CC[C@@]3(O)[C@H]1C5` [naloxone, Naloxone hydrochloride, reference compound], the “effect on antinociception of loperamide + S1RA” value in experiment [9] (1 mg/kg sc, identical with 5 or 11) was “full reversion of the antinociceptive effect of the combination of loperamide + S1RA”.

These data come from publication PMC8739840, “Structural and Molecular Insight into Piperazine and Piperidine Derivatives as Histamine H3 and Sigma-1 Receptor Antagonists with Promising Antinociceptive Properties” (ACS Chemical Neuroscience, 2021).
